# Patent US20120282237A1, “USE OF PROTEIN ARGININE METHYLTRANSFERASES IN REGULATING HEMATOPOIETIC DIFFERENTIATION” (priority 2011, published 2012)
# Columns and labels:
# K562 cells [1] = test: Ara-C-induced erythroid differentiation of K562 cells, benzidine staining; type: cell-based, human
# Method: Various K562 cell clones were treated with Ara-C (A, 1 μM) and sodium butyrate (B, 2 mM) for 96 hr, and measured by qualifying hemoglobin-positive cells with benzidine stain. […] All experiments were performed at least three times and data are presented as means±S.E.; *** p<0.005 as compared with K562 parental cells.
# The methyltransferase inhibitor, adenosine dialdehyde (AdOx), was added 8 hours before Ara-C treatment. Inhibition of methylation suppressed Ara-C-induced erythroid differentiation (A). The enzymatically impaired mutant PRMT1G80R, when transiently expressed in K562 cells (B), lost the effect on both megakaryocyte (C) and erythroid (D) differentiations. […] All experiments were performed at least three times and data are presented as means±S.E.; *** p<0.005 as compared with K562 parental cells.
# In order to test whether activity of PRMT1 participates in regulation of differentiation, adenosine dialdehyde (AdOx), an inhibitor of S-adenosylhomocysteine hydrolase, which indirectly suppresses methylation due to accumulation of products, was used to treat K562 cells. […] A single amino acid mutation (G80R) in the conserved SAM binding domain of PRMT1 with impaired methyltransferase activity (Kwak et al., Mol. Cell 2003, 11, 1055-1066), HA-PRMT1G80R, was transiently expressed in K562 cells (FIG. 5B).
# K562 cells [2] = test: PMA-induced megakaryocyte differentiation of K562 cells (modified Wright-Giemsa staining, adherent cells); type: cell-based, human; details: PMA 40 nM
# Method: For megakaryocyte differentiation, K562 cells were treated with 40 nM of PMA, (Sigma-Aldrich). Adherent cells with pseudopodia were examined by phase contrast light microscopy. For quantification, cells in suspension or loosely attached were first removed from the culture dish carefully, and adherent cells were then removed by trypsinization, collected, and counted. Cytological changes, including a multilobed nucleus and vacuolated cytoplasm, were examined by modified Wright-Giemsa staining. Three to four hundred cells were examined in each assay.
# Megakaryopoiesis can be characterized by cytological changes and expression of lineage-specific markers such as CD41. […] In addition, we observed an increased number of adherent cells, about 30% at 96 hour (FIG. 2B, E3-6).
# [3] = system: human CD34+ hematopoietic cells; test: TPO-induced megakaryocyte differentiation of CD34+ cells, CD41 expression by flow cytometry; type: cell-based; details: TPO alone (100 ng/ml), day 15
# Method: To analyze the megakaryocyte surface marker CD41, cells were first incubated in 2% bovine serum albumin for 30 min and then with fluorescein isothiocyanate (FITC)-conjugated anti-Plt-1 (CD41) antibodies (1:80, Beckman Coulter) in 1% bovine serum albumin for 30 min; cells were then analyzed by flow cytometry.
# To investigate the effect of PRMT1 in more physiologically relevant conditions, TAT-HA-PRMT1 was introduced into human CD34^+ hematopoietic cells. CD34^+ cells were derived from human umbilical cord blood with consent from the mother and were collected and processed according to governmental regulations (“Guidelines for Collection and Use of Human Specimens for Research.” Department of Health, Taiwan). Isolation and expansion of CD34^+ cells were performed as described previously (Yao, et al., Stem Cells Dev. 2006, 15, 70-78).
# Briefly, the CD34^+ cells were purified with CD34 microbeads by a Miltenyi VarioMACS device (Miltenyi Biotec) and cultivated in serum-free Iscove's modified Dulbecco's medium (IMDM) (HyClone) supplemented with serum substitutes (1.5 g/liter bovine serum albumin, 4.4 μg/ml insulin, 60 μg/ml transferrin, and 25.9 μM 2-mercaptoethanol) and a cytokine mixture (8.5 ng/ml TPO, 4.1 ng/ml interleukin-3, 15 ng/ml stem cell factor, 6.7 ng/ml flk2/flt3 ligand, 0.8 ng/ml interleukin-6, 3.2 ng/ml granulocyte colony-stimulating factor, and 1.3 ng/ml granulocyte-macrophage colony-stimulating factor) for 6 to 7 days. To induce megakaryocyte differentiation, the expanded CD34^+ cells were cultivated (5×10^4cells/ml) in media described above without cytokine mixture for 6 h. TPO (100 ng/ml) was added to induce differentiation. Expression of CD41 was analyzed by flow cytometry 15 days after TPO stimulation.
# Recombinant TAT-fused HA-PRMT1 and HA-GFP (as a control) proteins were expressed in Escherichia coli and purified using Ni^+-nitrilotriacetic acid-agarose (Qiagen). Endotoxins were removed using Detoxi-Gel™ endotoxin removing gel (Pierce) according to the manufacturer's instructions. For differentiation study, recombinant TAT-fused proteins were added to CD34^+ cells 6 h before TPO stimulation and again at the time of TPO addition.
# Both the recombinant TAT-conjugated HA-PRMT1 protein and the HA-GFP control protein were detected in cells by Western blot analysis (FIG. 6A). Erk was used as a loading control. Thrombopoietin (TPO) induces CD34^+ hematopoietic cells to undergo differentiation towards the megakaryocyte lineage as detected by the expression of the specific surface marker CD41. TPO-induced CD41 expression ranged from 45% to 76% in four different donors at day 15 after TPO treatment (Table 1).
compound,measurement,setting,value
"Nc1ncnc2c1ncn2C(C=O)OC(C=O)CO (centres unmarked) [AdOx, adenosine dialdehyde]",Ara-C-induced erythrocytic differentiation,K562 cells [1]; AdOx added 8 hours before Ara-C treatment,dramatically suppressed
same,erythrocytic differentiation,"K562 cells [1]; AdOx alone, no Ara-C",did not influence differentiation
"CCCCCCCCCCCCCC(=O)O[C@@H]1[C@@H](C)[C@@]2(O)[C@@H](C=C(CO)C[C@]3(O)C(=O)C(C)=C[C@@H]23)[C@@H]2C(C)(C)[C@]12OC(C)=O [PMA, Phobol 12-myristate 13-acetate]",cells with characteristics of megakaryocytes,"K562 cells [2]; E3-6 and parental K562 cells, 96 hours",About 50%
same,adherent cells,"K562 cells [2]; E3-6 cells, 96 hour",about 30%
"TPO: Thrombopoietin, inducer of megakaryocyte differentiation of CD34+ cells (100 ng/ml)",CD41 expression,[3]; donor 1,62.3%
same,CD41 expression,[3]; donor 2,44.7%
same,CD41 expression,[3]; donor 3,68.2%
same,CD41 expression,[3]; donor 4,75.7%
